Read-outs that look alike come from different tables or passages of the source. *1 amine or outer side, *2 acyl side, *3 side chain or, on linkers, in order; H or OH if unused. Where a SMILES comes first, the peptide text is derived from it. Side-chain parts run from the residue outwards. The star is where a group is joined. X1 = CC(C)CCC[C@@H](C)[C@H]1CC[C@H]2[C@@H]3CC=C4C[C@@H](OC(=O)CSC[C@H](N)C(=O)*)CC[C@]4(C)[C@H]3CC[C@]12C; PEG28 = NCCOCCOCCOCCOCCOCCOCCOCCOCCOCCOCCOCCOCCOCCOCCOCCOCCOCCOCCOCCOCCOCCOCCOCCOCCOCCOCCOCCOCCC(=O)O; N(octadecyl)2 = CCCCCCCCCCCCCCCCCCN(CCCCCCCCCCCCCCCCCC)*; NHOctadecyl = CCCCCCCCCCCCCCCCCCN*; Suc = O=C(CCC(=O)[*:2])[*:1]
Tests used:
HIV-1BaL [1] = format: cell-based; settings: for IC50 / IC95: HIV-1BaL, TZM-bl cells, peptide 10-0.00061 μM for 1 h at 37 °C before virus, luciferase after 48 h, sigmoid fit, mean of triplicates; for SI (CC50/IC50): ratio of CC50 (MTT assay) to IC50 (HIV-1BaL, TZM-bl cells)
Method: HIV-1BaL[52] was provided by the NIH AIDS Research & Reference Reagent Program (http://www.aidsreagent.org/). Viral stock was prepared by passage through activated PBMCs[53] for 11 days.
Luciferase-reporter HeLa cells stably transfected to express CD4 and CCR5; TZM-bl cells[54]−[56] were grown in Dulbecco’s Minimal Essential Medium (DMEM) (Sigma-Aldrich, Inc., St. Louis, MO) containing 10% fetal calf serum (FCS), 2 mM L-glutamine, and antibiotics (100 U of penicillin/mL, 100 μg of streptomycin/mL) at 37 °C in an atmosphere containing 5% CO2.
(§1) All inhibition assays in cellular and tissue explants models were performed using a standardized amount of virus culture supernatant normalized for infectivity. TZM-bl cells were incubated with serial dilutions of peptides (from 10 μM to 0.00061 μM) for 1 h at 37 °C, prior to challenge with HIV-1BaL. Luciferase expression (r.l.u. values) was determined after 48 h. Alternatively, tissue explants were incubated with serial dilutions of peptide (from 100 μM to 0.1 μM) for 1 h before virus (10^4 TCID50/mL) was added for 2 h. Explants were then washed four times with PBS to remove unbound virus and drug. Colorectal explants were then transferred onto gelfoam rafts (Welbeck Pharmaceuticals, UK) and cultured for 15 days as described previously[57] […]. Explants were cultured for up to 15 days in the absence of peptide. Approximately 50% of the supernatants were harvested every 2–3 days and explants were re-fed with fresh media. The extent of viral replication in tissue explants was determined by measuring the p24 antigen concentration in supernatants (INNOTEST HIV antigen mAb; Fujirebio Europe, Belgium). The extent of inhibition by each peptide was calculated. The percentage of inhibition was normalized relative to the r.l.u, for TZM-bl cells, or p24, for tissue explants, values obtained for cells or explants cultured in the absence of virus (100% inhibition) and for cells or explants infected with virus in the absence of peptide (0% inhibition). Data are the mean (±SEM) of triplicates. When a dose–response curve was obtained, IC50 and, if possible, IC95 values were calculated from sigmoid curve fits (GraphPad Prism). For all curves, R^2 is >0.7.

MTT cytotoxicity assay = format: cell-based; settings: human, HeLa-env cells, PAs coassembled with 5% FAM, 40-2.3 μM, absorbance 560 nm
Method: The metabolic activity of the cell line, related to the cytotoxic effect of the compounds to be tested, is measured after 24 h using the MTT assay. This assay is based on the metabolic reduction of 3-(4,5-dimethylthiazol-2-yl)-2,5-diphenyl-2H-tetrazolium bromide (MTT), carried out by the mitochondrial enzyme succinate dehydrogenase, in a colored compound of blue color (formazan) that can be monitored by absorbance spectroscopy at 560 nm, allowing determination of the mitochondrial functionality of the treated cells.
The HeLa-env cell line is seeded in 96-well plates with an initial density of 15,000 cells per well in 100 μL of culture medium (Dulbecco’s modified Eagle’s medium, DMEM, with 10% FBS added) and incubated for 24 h at 37 °C and 5% CO2 to allow their adhesion. The cell monolayers are washed with PBS, and then 100 μL of PAs formulations (peptide amphiphiles coassembled with 5% FAM) are added in a concentration range from 40 μM to 2.3 μM. The plates are kept in incubation for further 24 h.
At the end of the incubation time, the cells are incubated for 3 h with 1 mg/mL of MTT, dissolved in culture medium without FBS, to allow the formation of formazan crystals. Subsequently, 100 μL of DMSO are added to wells, stirring the plates for 30 min at room temperature to facilitate the complete dissolution of the crystals. Finally, the absorbance at 560 nm is measured in a microplate reader.
The results are expressed as relative percentage between absorbance of PA formulations against absorbance of its DMSO controls and CC50 and CC25 values are taken from dose–response curves.

[2] = Visual stability and aspect of POPC vesicles mixed with PAs (SAXS samples); format: physicochemical; settings: POPC 20 mM + 2 mM PA, 0.5% DMSO
Method: In Figure 5A,B, we show the spectra corresponding to POPC 20 mM and POPC 20 mM + 2 mM PAs (all of them in the presence of 0.5% DMSO). The band centered at 1.2 nm^–1 and the secondary band at 3.2 nm^–1 were typical of unilamellar vesicles.[35]
The incorporation of PAs had some distinct consequences. The first and more obvious one is the distinction between stable and unstable systems.

HIV-1BaL [3] = format: cell-based; settings: colorectal tissue explants, peptide 100-0.1 μM for 1 h before and 2 h during virus (pulse, 3 h), p24 ELISA at day 15, mean (SEM) of triplicates
Source text: Human tissue explants: Surgically resected specimens of colorectal tissues were collected from HIV negative patients at St. Mary’s Hospital, Imperial College Healthcare NHS Trust, London, UK. All tissues were collected after receiving signed informed consent from all patients through the Imperial College Healthcare Tissue Bank approved by Research Ethics Committee Wales (IRAS 17/WA/0161). On arrival in the laboratory, resected tissue was cut into 2–3 mm^3 explants comprising both epithelial and muscularis mucosae as described previously.[57] Tissue explants were maintained with DMEM containing 10% fetal calf serum, 2 mM L-glutamine, and antibiotics (100 U of penicillin/mL, 100 μg of streptomycin/mL, 80 μg of gentamicin/mL) at 37 °C in an atmosphere containing 5% CO2.
as §1

[4] = not given; remark: listed apart in the source
[5] = not given; remark: listed apart in the source

Row | Compound | IC50 (HIV-1BaL [1]) | CC50 at 24 h (MTT cytotoxicity assay) | stability / aspect of the sample [2] | lamellar characteristic distance | IC95 (HIV-1BaL [1]) | SI (CC50/IC50) (HIV-1BaL [1]) | IC50 (HIV-1BaL [3]) | IC95 (HIV-1BaL [3]) | Trp fluorescence emission maximum (λmax) [4] | lamellar liquid crystal periodicity [5]
1 | CC[C@H](C)[C@H](NC(=O)[C@@H](NC(=O)CNC(=O)[C@H](CCCNC(=N)N)NC(=O)[C@H](Cc1c[nH]c2ccccc12)NC(=O)[C@H](Cc1ccccc1)NC(=O)[C@H](CC(=O)O)NC(=O)[C@H](Cc1ccccc1)NC(=O)[C@@H]1CCCN1C(=O)[C@@H](NC(=O)[C@H](CCCCN)NC(=O)[C@H](Cc1c[nH]c2ccccc12)NC(=O)[C@H](CC(C)C)NC(=O)[C@H](Cc1ccc(O)cc1)NC(=O)[C@H](CCC(=O)O)NC(=O)[C@H](CC(C)C)NC(=O)[C@@H](NC(=O)[C@@H](N)Cc1c[nH]c2ccccc12)[C@@H](C)CC)C(C)C)C(C)C)C(=O)N[C@@H](CCCCNC(=O)CCOCCOCCOCCOCCOCCOCCOCCOCCOCCOCCOCCOCCOCCOCCOCCOCCOCCOCCOCCOCCOCCOCCOCCOCCOCCOCCOCCOCCNC(=O)[C@@H](N)CSCC(=O)O[C@H]1CC[C@@]2(C)C(=CC[C@H]3[C@@H]4CC[C@H]([C@H](C)CCCC(C)C)[C@@]4(C)CC[C@@H]32)C1)C(N)=O [C-PAchol] (H-WILEYLWKVPFDFWRGVIK([PEG28-X1])-NH2) | 1.71 µM | > 40 µM | bluish | 4.9 nm | – | – | – | – | – | –
2 | CCCCCCCCCCCCCCCCCCN(CCCCCCCCCCCCCCCCCC)C(=O)CCC(=O)NCCOCCOCCOCCOCCOCCOCCOCCOCCOCCOCCOCCOCCOCCOCCOCCOCCOCCOCCOCCOCCOCCOCCOCCOCCOCCOCCOCCOCCC(=O)NCCCC[C@H](NC(=O)[C@@H](NC(=O)[C@@H](NC(=O)CNC(=O)[C@H](CCCNC(=N)N)NC(=O)[C@H](Cc1c[nH]c2ccccc12)NC(=O)[C@H](Cc1ccccc1)NC(=O)[C@H](CC(=O)O)NC(=O)[C@H](Cc1ccccc1)NC(=O)[C@@H]1CCCN1C(=O)[C@@H](NC(=O)[C@H](CCCCN)NC(=O)[C@H](Cc1c[nH]c2ccccc12)NC(=O)[C@H](CC(C)C)NC(=O)[C@H](Cc1ccc(O)cc1)NC(=O)[C@H](CCC(=O)O)NC(=O)[C@H](CC(C)C)NC(=O)[C@@H](NC(=O)[C@@H](N)Cc1c[nH]c2ccccc12)[C@@H](C)CC)C(C)C)C(C)C)[C@@H](C)CC)C(N)=O [C-PAdialkyl] (H-WILEYLWKVPFDFWRGVIK([PEG28-Suc-N(octadecyl)2])-NH2) | – | 25 µM | bluish | 5.7 nm | – | – | – | – | – | –
3 | CCCCCCCCCCCCCCCCCCNC(=O)CCC(=O)NCCOCCOCCOCCOCCOCCOCCOCCOCCOCCOCCOCCOCCOCCOCCOCCOCCOCCOCCOCCOCCOCCOCCOCCOCCOCCOCCOCCOCCC(=O)NCCCC[C@H](NC(=O)[C@@H](NC(=O)[C@@H](NC(=O)CNC(=O)[C@H](CCCNC(=N)N)NC(=O)[C@H](Cc1c[nH]c2ccccc12)NC(=O)[C@H](Cc1ccccc1)NC(=O)[C@H](CC(=O)O)NC(=O)[C@H](Cc1ccccc1)NC(=O)[C@@H]1CCCN1C(=O)[C@@H](NC(=O)[C@H](CCCCN)NC(=O)[C@H](Cc1c[nH]c2ccccc12)NC(=O)[C@H](CC(C)C)NC(=O)[C@H](Cc1ccc(O)cc1)NC(=O)[C@H](CCC(=O)O)NC(=O)[C@H](CC(C)C)NC(=O)[C@@H](NC(=O)[C@@H](N)Cc1c[nH]c2ccccc12)[C@@H](C)CC)C(C)C)C(C)C)[C@@H](C)CC)C(N)=O [C-PAmonoalkyl] (H-WILEYLWKVPFDFWRGVIK([PEG28-Suc-NHOctadecyl])-NH2) | 0.08 µM | 20 µM | bluish | 4.7 nm | 5.60 µM | 250 | 3.48 µM | 24.29 (3.61) μM | – | –
4 | CC[C@H](C)[C@H](NC(=O)[C@@H](NC(=O)CNC(=O)[C@H](CCCNC(=N)N)NC(=O)[C@H](Cc1c[nH]c2ccccc12)NC(=O)[C@H](Cc1ccccc1)NC(=O)[C@H](CC(=O)O)NC(=O)[C@H](Cc1ccccc1)NC(=O)[C@@H]1CCCN1C(=O)[C@@H](NC(=O)[C@H](CCCCN)NC(=O)[C@H](Cc1c[nH]c2ccccc12)NC(=O)[C@H](CC(C)C)NC(=O)[C@H](Cc1ccc(O)cc1)NC(=O)[C@H](CCC(=O)O)NC(=O)[C@H](CC(C)C)NC(=O)[C@@H](NC(=O)[C@@H](N)Cc1c[nH]c2ccccc12)[C@@H](C)CC)C(C)C)C(C)C)C(N)=O [E1P47] (H-WILEYLWKVPFDFWRGVI-NH2) | 7.26 µM | – | – | – | 28.21 µM | – | – | – | 356 nm | –
5 | CC[C@H](C)[C@H](NC(=O)[C@@H](NC(=O)CNC(=O)[C@H](CCCNC(=N)N)NC(=O)[C@H](Cc1c[nH]c2ccccc12)NC(=O)[C@H](Cc1ccccc1)NC(=O)[C@H](CC(=O)O)NC(=O)[C@H](Cc1ccccc1)NC(=O)[C@@H]1CCCN1C(=O)[C@@H](NC(=O)[C@H](CCCCNC(=O)CCOCCOCCOCCOCCOCCOCCOCCOCCOCCOCCOCCOCCOCCOCCOCCOCCOCCOCCOCCOCCOCCOCCOCCOCCOCCOCCOCCOCCNC(=O)[C@@H](N)CSCC(=O)O[C@H]1CC[C@@]2(C)C(=CC[C@H]3[C@@H]4CC[C@H]([C@H](C)CCCC(C)C)[C@@]4(C)CC[C@@H]32)C1)NC(=O)[C@H](Cc1c[nH]c2ccccc12)NC(=O)[C@H](CC(C)C)NC(=O)[C@H](Cc1ccc(O)cc1)NC(=O)[C@H](CCC(=O)O)NC(=O)[C@H](CC(C)C)NC(=O)[C@@H](NC(=O)[C@@H](N)Cc1c[nH]c2ccccc12)[C@@H](C)CC)C(C)C)C(C)C)C(N)=O [K-PAchol] (H-WILEYLWK([PEG28-X1])VPFDFWRGVI-NH2) | 0.09 µM | > 40 µM | bluish | – | – | – | – | – | – | 4.8 nm
6 | CCCCCCCCCCCCCCCCCCNC(=O)CCC(=O)NCCOCCOCCOCCOCCOCCOCCOCCOCCOCCOCCOCCOCCOCCOCCOCCOCCOCCOCCOCCOCCOCCOCCOCCOCCOCCOCCOCCOCCC(=O)N[C@@H](Cc1c[nH]c2ccccc12)C(=O)N[C@H](C(=O)N[C@@H](CC(C)C)C(=O)N[C@@H](CCC(=O)O)C(=O)N[C@@H](Cc1ccc(O)cc1)C(=O)N[C@@H](CC(C)C)C(=O)N[C@@H](Cc1c[nH]c2ccccc12)C(=O)N[C@@H](CCCCN)C(=O)N[C@H](C(=O)N1CCC[C@H]1C(=O)N[C@@H](Cc1ccccc1)C(=O)N[C@@H](CC(=O)O)C(=O)N[C@@H](Cc1ccccc1)C(=O)N[C@@H](Cc1c[nH]c2ccccc12)C(=O)N[C@@H](CCCNC(=N)N)C(=O)NCC(=O)N[C@H](C(=O)N[C@H](C(N)=O)[C@@H](C)CC)C(C)C)C(C)C)[C@@H](C)CC [N-PAmonoalkyl] ({NHOctadecyl-Suc-PEG28}-WILEYLWKVPFDFWRGVI-NH2) | 0.2 µM | 17 µM | precipitated rather fast and made compact flocks | – | 5.87 µM | 85 | 0.28 µM | 2.53 (1.14) μM | – | –

— article PMC8447191, “Peptide Amphiphilic-Based Supramolecular Structures with Anti-HIV-1 Activity” (Bioconjugate Chemistry, 2021)
